The text below walks through data of patent US11141462B2, “Method for the treatment or prevention of osteoarthritis” (Chondropeptix B.V., priority 2016, dated 2021).

What all share (format): cell-based, human
For test [1], the system named is OA articular chondrocytes. In words: OA chondrocyte phenotype gene expression screening of BMP-7 peptides (RT-qPCR). To be noted: for suppression of the OA chondrocyte phenotype: independent of the tested concentration (1000, 100, 10 and 1 nM were tested); for activity in the assays as employed herein (table 2): peptides with additional amino acid N-terminal of position 100. As for the experimental part: (§1) FIG. 2: The action of 20-mer peptides (10 nM) of SEQ ID NO: 2-17 (peptides with 1 or 2 amino acids intervals (18-19 amino acid overlap)) and a random peptide with a sequence according to SEQ ID NO: 49 on the expression of ADAMTS5 was determined on a validated pool of passage 2 OA human articular chondrocytes (n=18) and compared to full-length recombinant BMP-7 (1 nM). Samples were harvested after 24 hours and analyzed for indicated genes by RT-qPCR (normalized for 28S rRNA expression and relative to control conditions (no peptide exposure)). In the graphs, numbers on the x-axis represent individual peptides according to their SEQ ID NO's, error bars represent mean±SEM, statistical differences were calculated (one-way ANOVA with bonferroni correction) to control condition. *=p<0.05 lower than control condition for ADAMTS5. Random peptide is a peptide according to SEQ ID NO: 49.
as §1, with “3:” for “2:”, “ALP” for “ADAMTS5”, “ALP.” for “ADAMTS5.”
as §1, with “4:” for “2:”, “BAPX1/NKX3.2” for “ADAMTS5”, “BAPX1/NKX3.2.” for “ADAMTS5.”
as §1, with “5:” for “2:”, “COL10A1” for “ADAMTS5”, “COL10A1.” for “ADAMTS5.”
FIG. 6: The action of 20-mer peptides (10 nM) of SEQ ID NO: 2-17 (peptides with 1 or 2 amino acids intervals (18-19 amino acid overlap)) and a random peptide with a sequence according to SEQ ID NO: 49 on the expression of IL-6 was determined on a validated pool of passage 2 OA human articular chondrocytes (n=18) and compared to full-length recombinant BMP-7 (1 nM). […]

The test system of test [2] is Meniscus tissue samples from OA patients. Description: PGE2 ELISA, meniscus tissue samples. As to conditions: 10 nM, 24 h. As for the experimental part: Meniscus tissue samples from OA patients (n=6) were treated with BMP-7 (1 nM) with peptide peptide […] (SEQ ID NO: 13) at 10 nM or a scrambled irrelevant control peptide (10 nM) for 24 h. PGE2 levels were determined via an ELISA.
A general note: ELISA stands for enzyme-linked immunosorbent assay.

Test [3] relates to Hoffa's fat pad tissue samples from OA patients. Description: PGE2 ELISA, Hoffa's fat pad tissue samples. To be noted: 10 nM, 24 h. On the procedure: Hoffa's fat pad tissue samples from OA patients (n=6) were treated with BMP-7 (1 nM) with peptide […] (SEQ ID NO: 13) at 10 nM or a scrambled irrelevant control peptide (10 nM) for 24 h. PGE2 levels were determined via an ELISA.

The test system of test [4] is Cartilage explants from OA patient's knee cartilage. In words: PGE2 ELISA, cartilage explants. As to conditions: 10 nM, 14 days. On the procedure:
Cartilage explants of 3 mm^2 were taken from OA patient's knee cartilage (n=6) and treated with BMP-7 (1 nM), with peptide […] (SEQ ID NO: 13) at 10 nM or a scrambled irrelevant control peptide (10 nM) for 14 days. Prostaglandin E2 (PGE2) levels, a pro-hypertrophic factor, were determined via an ELISA.

For test [5], the system named is Synovial tissue samples from OA patients. In words: PGE2 ELISA, synovial tissue samples. To be noted: 10 nM, 24 h. On the procedure: Synovial tissue samples from OA patients (n=6) were treated with BMP-7 (1 nM), with peptide […] (SEQ ID NO: 13) at 10 nM or a scrambled irrelevant control peptide (10 nM) for 24 h. PGE2 levels were determined via an ELISA.
Test [6] has as its system Cartilage explants. In words: Safranin-O staining of glycosaminoglycans in cartilage explants. As to conditions: 10 nM, 14 days; explants from 2 patients; compared to control. As for the experimental part:
Cartilage explants obtained from 2 patients were cultured for 14 days in the presence of BMP-7 (1 nM) or BMP-7 mimicking peptide […] (SEQ ID NO: 13) at 10 nM. Glycosaminoglycans (GAGs), an important component of the extracellular matrix (ECM), were stained with Safranin-O (in red) and other tissues are counterstained with Fast green (in green/blue).

The test system of test [7] is Isolated chondrocytes from OA patients. In words: Treatment of isolated chondrocytes from OA patients, gene expression by qRT-PCR. To be noted: 1 nM, 24 h; qRT-PCR normalized for 28S rRNA; n=6. As for the experimental part:
Isolated chondrocytes from OA patients (n=6) were treated with BMP-7 (1 nM) or the 12-mer peptide according to SEQ ID NO: 43 (1 nM) for 24 h. Pro-chondrogenic (FIG. 8A) and hypertrophic (FIGS. 8B, 8C and 8D) gene expression was determined via qRT-PCR and normalized for 28S rRNA levels.
(In general: Quantitative PCR measures a nucleic acid by following its amplification.)

The test system of test [8] is cartilage explants from OA patient's knee articular cartilage. In words: Treatment of cartilage explants, hypertrophic gene expression by qRT-PCR. As to conditions: 10 nM, 24 h. On the procedure:
4 mm 2 cartilage explants were taken from non-lesion areas of OA patient's knee articular cartilage (n=5) and randomly assigned to different experimental treatment conditions (4 explants per treatment group). After a 24 h equilibration period the explants were treated with BMP-7 (1 nM) or the 12-mer peptide according to SEQ ID NO: 43 (10 nM) for 24 h. Hypertrophic gene expression was determined via qRT-PCR and normalized for 28S rRNA levels. After treatment with BMP-7 or the 12 mer we observed a downregulation of pro-hypertrophic genes, such as Col10a1 (FIG. 9A) and MMP13 (FIG. 9B).

Consider “AISVLYFDDSSNVILKKYRN (listed as Homo sapiens) [SEQ ID NO: 12]”, for which, in test [1], the “suppression of the OA chondrocyte phenotype” value (shortened to “suppression”) is given as “efficiently suppressed the OA chondrocyte phenotype”.
On the same count and under the same terms, under “APTQLNAISVLYFDDSSNVI (listed as Homo sapiens) [SEQ ID NO: 9]” stands “efficiently suppressed the OA chondrocyte phenotype”.
In the case of “ETVPKPSSAPTQLNAISVLY (listed as Homo sapiens) [SEQ ID NO: 4]”, in test [1], the “activity in the assays as employed herein (table 2)” value (from here on “activity in the assays”) is recorded as “lost its activity”.
For the sequence “FDDSSNVILKKYRNMVVRAS (listed as Homo sapiens) [SEQ ID NO: 15]”, the “suppression” value in test [1] is “efficiently suppressed the OA chondrocyte phenotype”.
For “FINPETVPKPSSAPTQLNAI (listed as Homo sapiens) [SEQ ID NO: 2]”, the “activity in the assays” value in test [1] is on record as “lost its activity”.
Consider “KPSSAPTQLNAISVLYFDDS (listed as Homo sapiens) [SEQ ID NO: 7]”, for which, in test [1], the “suppression” value is recorded as “efficiently suppressed the OA chondrocyte phenotype”.
Still for that read-out and setting: under “LNAISVLYFDDSSNVILKKY (listed as Homo sapiens) [SEQ ID NO: 11]” stands “efficiently suppressed the OA chondrocyte phenotype”; under “LYFDDSSNVILKKYRNMVVR (listed as Homo sapiens) [SEQ ID NO: 14]”, “efficiently suppressed the OA chondrocyte phenotype”.
Consider “NPETVPKPSSAPTQLNAISV (listed as Homo sapiens) [SEQ ID NO: 3]”, for which the “activity in the assays” value in test [1] is “lost its activity”.
As to “PKPSSAPTQLNAISVLYFDD (listed as Homo sapiens) [SEQ ID NO: 6]”, the “suppression” value in test [1] is “efficiently suppressed the OA chondrocyte phenotype”.
The same measure, in the same setting: next, “SSAPTQLNAISVLYFDDSSN (listed as Homo sapiens) [SEQ ID NO: 8]”: “efficiently suppressed the OA chondrocyte phenotype”; “SSNVILKKYRNMVVRASGSH (listed as Homo sapiens) [SEQ ID NO: 17]”: “efficiently suppressed the OA chondrocyte phenotype”.
“SVLYFDDSSNVILKKYRNMV (listed as Homo sapiens) [SEQ ID NO: 13]”: the PGE2 levels entry in test [2], in test [3], in test [4] and in test [5] was “reduce PGE2 levels” in each case. In addition, in test [1], the “suppression” value is reported as “efficiently suppressed the OA chondrocyte phenotype”. For the same sequence, in test [6], the “Safranin-O intensity (glycosaminoglycans)” value was “increased Safranin-O intensity”.
Consider “TQLNAISVLYFDDSSNVILK (listed as Homo sapiens) [SEQ ID NO: 10]”, for which, in test [1], the “suppression” value was “efficiently suppressed the OA chondrocyte phenotype”.
As for “VPKPSSAPTQLNAISVLYFD (listed as Homo sapiens) [SEQ ID NO: 5]”, the “activity in the assays” value in test [1] is recorded as “lost its activity”.
Turning to “YSEGESAFPLNS (listed as Homo sapiens) [SEQ ID NO: 43]”, in test [7], the “COL10A1 (pro-hypertrophic) gene expression” value is “downregulation”, the “COX-2 (pro-hypertrophic) gene expression” value is “downregulation”, the “Col2a1 (pro-chondrogenic) gene expression” value is given as “upregulation” and the “RUNX2 (pro-hypertrophic) gene expression” value is recorded as “downregulation”. Besides, in test [8], the Col10a1 gene expression result was “downregulation” and the MMP13 gene expression entry is listed as “downregulation”.
